Patent US20230159899A1, “DEVICES AND METHODS FOR SIMULATING A FUNCTION OF LIVER TISSUE” (EMULATE, INC., priority 2015, published 2023)
Read-outs that look alike come from different tables or passages of the source.

Legend:
Rat Stellate Cells = assay: Stellate cell activation in quadruple-culture Rat Liver-on-Chip (α-SMA staining); assay type: cell-based; details: 1 ng/ml for 48 hours, from Day 7
Procedure: FIGS. 82A-82B provides a micrograph of isolated Rat Stellate Cells that were seeded within a microfluidic Quadruple-culture “Rat Liver-on-Chip”. […] DAPI (blue) stained nuclei.
A quadruple-culture microfluidic Rat Liver-on-Chip at Day 7 has viable Stellate cells.

Human Liver-on-Chip [1] = assay type: in vitro ADME
Description: FIG. 83 provides a graph measuring a low clearance compound Antipyrine in a Clearance assay in microfluidic “Human Liver-on-Chip” under continuous flow.
FIG. 84 provides a graph measuring low clearance compound Antipyrine in a Clearance assay in microfluidic “Human Liver-on-Chip” under non-dynamic conditions.
Each drug molecule has a limited time to interact with hepatocytes, i.e. an interaction time. Under conditions of flow, the interaction time is reduced. However the interaction time can be increased by either using non-dynamic conditions (absence of flow) or by reticulating the media containing the drug. The present invention contemplates both embodiments for increasing interaction time, and in particular for low clearance compounds. […] See, FIGS. 83-84.
Under dynamic conditions: Antipyrine medium removed from the Liver-on-Chip at 5 sample points over 10 hours of incubation, then again after 25 hours of incubation, was tested for an amount (%) of remaining compound. After 25 hours, around 90% of the compound remained in the media. See, FIG. 83.
Under non-dynamic conditions: 50 μl (total) of Antipyrine medium in the Liver-on-Chip was tested for an amount (%) of remaining compound, after incubation for 24 hours and 48 hours. At 48 hours, around 100% of the compound appeared to be present in the media. […]

[2] = molecular target: T1, rat Na(+)-dependent taurocholate co-transporting polypeptide (Ntcp/Slc10a1) (Rattus norvegicus, UniProt P26435); details: rat Ntcp/Slc10a1 expressed in HEK293 cells; read-out: IC(50), inhibition of taurocholate uptake; cited from earlier work
T1 sequence (P26435 1-362): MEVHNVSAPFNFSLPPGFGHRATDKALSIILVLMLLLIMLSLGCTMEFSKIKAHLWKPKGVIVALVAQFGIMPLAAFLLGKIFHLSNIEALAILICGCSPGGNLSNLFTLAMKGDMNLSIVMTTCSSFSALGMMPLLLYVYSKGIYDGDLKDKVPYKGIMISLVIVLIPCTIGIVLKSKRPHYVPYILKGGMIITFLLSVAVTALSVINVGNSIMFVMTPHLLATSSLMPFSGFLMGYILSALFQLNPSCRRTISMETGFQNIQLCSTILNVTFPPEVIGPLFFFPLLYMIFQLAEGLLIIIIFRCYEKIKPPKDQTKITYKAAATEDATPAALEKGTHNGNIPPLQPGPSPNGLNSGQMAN

RAT Liver-on-Chip = assay: Bosentan toxicity as LDH leakage, RAT Liver-on-Chip; assay type: cell-based; details: 1.2-100 μM
Procedure: (§1) FIGS. 75A-75C provides graphs measuring Bosentan Toxicity as a percentage of LDH Leakage in three different species of microfluidic chips: FIG. 75A “RAT Liver-on-Chip” (7 days of treatment); FIG. 75B microfluidic “DOG Liver-on-Chip” (7 days of treatment); and FIG. 75C microfluidic “Human Liver-on-Chip” (3 days of treatment) increasing concentrations from 1.2 (1.3 for human)-100 μM. Samples were removed from the hepatocyte channel and the LSEC channel of the microfluidic chip with a sample from a plate sandwich culture shown for comparison.
(§2) An exemplary tool compound was chosen for a pilot study, as an exemplary step 1: Bosentan (Tracleer), see, FIG. 74 for an exemplary chemical structure. […] Step 2: RAT and DOG “Liver-on-Chip” models were chosen for comparison to a HUMAN “Liver-on-Chip”. Step 3: A concentration range of 1.2 to 100 μM Bosentan was selected. Step 4, a first type of mechanism, e.g. exemplary LDH leakage was chosen for analysis of toxicity. FIG. 75 provides graphs measuring Bosentan Toxicity as a percentage of LDH Leakage in three different species of microfluidic chips: A) “RAT Liver-on-Chip” (7 days of treatment); B) microfluidic “DOG Liver-on-Chip” (7 days of treatment); and C) microfluidic “Human Liver-on-Chip” (3 days of treatment) increasing concentrations from 1.2 (1.3 for human)-100 μM. […]

[3] = clinical trials, cited from earlier work
[4] = system: Na(+)-dependent taurocholate uptake; details: human suspended hepatocytes; read-out: IC(50), inhibition of Na(+)-dependent taurocholate uptake; cited from earlier work
[5] = reported in literature; cited from earlier work
[6] = system: Na(+)-dependent taurocholate uptake; details: rat suspended hepatocytes; read-out: IC(50), inhibition of Na(+)-dependent taurocholate uptake; cited from earlier work
[7] = system: hepatocytes with liver sinusoidal endothelial cells (LSEC); assay: Modified Human Liver-on-Chip with LSEC only, hepatocytes only and co-culture areas, visual observation; assay type: cell-based; details: Bosentan at 11 μM, 3 days of treatment
Description: (§3) One contemplated difference between unsuccessful modeling experiments i.e. measuring cell death by LDH release, as in FIG. 75 vs. successful modeling measuring reduced cell function by a reduction in albumin secretion, as in FIG. 76, was potential cross-talk (e.g. exchange of secretions or physical cell-cell interactions) between Hepatocyte and liver sinusoidal endothelial cells (LSEC) after treatment with Bosentan. Therefore, a Human Liver-on-Chip was designed and seeded with areas of LSEC only and hepatocytes only, allowing a co-culture area in between, see, micrograph in FIG. 77. […] Therefore, co-culturing with LSEC increases hepatocytes sensitivity to Bosentan in these microfluidic HUMAN Liver-on-Chips.

Human Liver-on-Chip [8] = assay type: cell-based
Procedure: (§4) FIGS. 76A-76C provides graphs measuring Bosentan Toxicity as Albumin Secretion in three different species of microfluidic chips: FIG. 76A “RAT Liver-on-Chip”; FIG. 76B “DOG Liver-on-Chip”; increasing concentrations from 1.2-100 μM and FIG. 76C “Human Liver-on-Chip” increasing concentrations from 0.4-100 μM. Samples were removed from the microfluidic chip with a sample from a plate sandwich culture shown for comparison.
(§5) Thus, for step 4, one exemplary toxicity mechanism is a loss of albumin secretion.
as §3

human NTCP (SLC10A1) = molecular target: T2, human NTCP (SLC10A1) (Homo sapiens, UniProt Q14973); details: human NTCP (SLC10A1) expressed in HEK293 cells; read-out: IC(50), inhibition of taurocholate uptake; cited from earlier work
T2 sequence (Q14973 1-349): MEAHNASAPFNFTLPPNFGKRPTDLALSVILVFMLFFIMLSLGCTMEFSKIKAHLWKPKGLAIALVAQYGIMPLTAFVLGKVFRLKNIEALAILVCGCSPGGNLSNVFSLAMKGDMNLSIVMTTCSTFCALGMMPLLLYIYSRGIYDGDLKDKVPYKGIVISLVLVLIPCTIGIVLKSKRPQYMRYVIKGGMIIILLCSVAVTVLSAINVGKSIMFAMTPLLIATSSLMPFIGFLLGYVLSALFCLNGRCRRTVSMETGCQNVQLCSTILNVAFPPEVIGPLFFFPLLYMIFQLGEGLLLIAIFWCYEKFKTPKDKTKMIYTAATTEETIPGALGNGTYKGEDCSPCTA

DOG Liver-on-Chip [9] = assay type: cell-based; details: 7 days
Procedure: as §1, §2

DOG Liver-on-Chip [10] = assay: Bosentan toxicity as albumin secretion, DOG Liver-on-Chip; assay type: cell-based
Procedure: as §4, §5

Human Liver-on-Chip [11] = assay type: cell-based; details: 3 days
Procedure: as §1, §2

With “TGFβ-1: factor used to activate Stellate cells” the “expression of activation marker Alpha-smooth muscle actin (α-SMA)” value (Rat Stellate Cells) was “increased (strong) expression”.

For `Cc1cc(=O)n(-c2ccccc2)n1C` [Antipyrine], the “amount of remaining compound in the media” value (Human Liver-on-Chip [1]; dynamic conditions (continuous flow), after 25 hours) was “around 90%” and the “amount of remaining compound in the media” value (Human Liver-on-Chip [1]; non-dynamic conditions, 50 μl medium, at 48 hours) was “around 100%”.

For `COc1ccccc1Oc1c(NS(=O)(=O)c2ccc(C(C)(C)C)cc2)nc(-c2ncccn2)nc1OCCO` [Bosentan], the IC50 [2] is given as 0.71 µM, the “LDH leakage, hepatocytes and LSEC channel of chip” value (RAT Liver-on-Chip; 7 days of treatment) is given as “no toxicity effects” and the “LDH toxicity, rat hepatocytes on conventional plates” value (RAT Liver-on-Chip; plate sandwich culture) is given as “does not show LDH toxicity”. The “elevations in serum Alanine aminotransferase (ALT)” value ([3]; patients who developed hepatotoxicity) was “greater than 3 fold”, the “human patients treated who developed hepatotoxicity” value [3] was 8-18% and the IC50 [4] was 30 µM. The “hepatotoxicity in treated rats” value [5] was “do not develop hepatotoxicity”, the IC50 [6] was 5.4 µM and the “hepatocyte degradation, LSEC area or area of hepatocytes alone” value [7] was “not in either the LSEC area or area of hepatocytes alone”. For the same compound, the “visual observation, co-culture area of hepatocytes with LSEC” value [7] was “significant hepatocyte degradation”, the “dose response of albumin secretion” value (Human Liver-on-Chip [8]) was “clear dose response” and the IC50 (human NTCP (SLC10A1)) was 24 µM. The “LDH leakage: dose up to which there was a lack of effects” value (DOG Liver-on-Chip [9]) was 100 µM, the “albumin secretion by DOG hepatocytes” value (DOG Liver-on-Chip [10]; 11.1 μM Bosentan) was “relatively constant amounts of albumin” and the “dose response associated with albumin secretion (loss of albumin secretion)” value (DOG Liver-on-Chip [10]; 1.2-100 μM, fluid samples from the upper chamber) was “clear dose response”. For the same compound, the “LDH leakage: concentration at which hepatocytes on plates showed an effect” value (Human Liver-on-Chip [11]) was 100 µM and the “concentration at which LDH effect was observed (the same as for loss of albumin secretion)” value (Human Liver-on-Chip [11]) was “either 3.7 μM or 11.1 μM”.
